Columns and labels:
in vivo [1] = conditions: rat, po
Method: (§1) Three studies were performed to investigate the pharmacokinetics of oral administration of a scyllo-cyclohexanehexyl (Table 1):
Plasma pharmacokinetics (PK) of a scyllo-cyclohexanehexyl in rats was assessed after single oral doses of 15, 50 and 150 mg/kg. After single oral doses in rats, maximum plasma concentration (Cmax) and exposure (AUC0-t) values increased proportionally with dose level of the scyllo-cyclohexanehexyl. Other parameters were unchanged with dose level. The scyllo-cyclohexanehexyl was absorbed rapidly, with mean tmax observed between 1.0 and 2.2 hours post-dose. […] Estimates of mean residence time (MRT) were consistent. Volumes of distribution (Vdss) were large, indicating wide distribution of scyllo-cyclohexanehexyl in rats.

in vivo [2] = conditions: dog, po
Method: as §1
Two studies have investigated the single dose PK of oral administration of a scyllo-cyclohexanehexyl in dogs. The 14 day study investigated 18 animals. On Day 1 of this study Cmax and AUC values increased proportionally with dose level of a scyllo-cyclohexanehexyl. […] The extensive brain penetrance of the scyllo-cyclohexanhexyl (see below) may be relevant in this regard.

[3] = Single oral and intravenous dose pharmacokinetics, dose range-finding study in beagle dogs; format: in vivo, beagle dog; conditions: for Tmax: po; for Vd: read-out: VdSS
Method: PK of single oral doses of the scyllo-cyclohexanhexyl was also investigated in a preliminary fashion in a dose range-finding study in 5 beagle dogs. […] The Cmax and AUC values increased proportionally with dose, consistent with observations in the larger study. Estimates of t½ ranged from 2 to 5 hours. Neither dose nor route of administration had any clear effect on t½, MRT, Cl/F or Vdss.

[4] = beagle, dog, plasma, dogs, single intravenous dose 80 mg/kg
[5] = beagle, dog, plasma, dogs, single intravenous dose 240 mg/kg
[6] = beagle, dog, plasma, dogs, single oral dose 20 mg/kg
[7] = beagle, dog, plasma, dogs, single oral dose 80 mg/kg
[8] = beagle, dog, plasma, dogs, single oral dose 240 mg/kg

Q: Which AUC(0-inf) (in vivo [1]; 15 mg/kg) does the source give for `OC1C(O)C(O)C(O)C(O)C1O` (centres unmarked) [AZD-103, scyllo-inositol] here?
A: Its AUC(0-inf) is 41.9 ± 11.9 µg·h/mL.

Q: What about the AUC(0-t) (in vivo [1]; 15 mg/kg) of the same compound?
A: The AUC(0-t) was 39.7 ± 11.3 µg·h/mL.

Q: And the CL/F (in vivo [1]; 15 mg/kg)?
A: Its CL/F is 12.8 mL/min/kg.

Q: And the Cmax (in vivo [1]; 15 mg/kg)?
A: Its Cmax is 13200 ± 2000 ng/mL.

Q: What about the MRT (in vivo [1]; 15 mg/kg) of the same compound?
A: The MRT was 3.7 ± 0.5 h.

Q: What about the Tmax (in vivo [1]; 15 mg/kg) of the same compound?
A: The Tmax was 1 h.

Q: What about the Vd (in vivo [1]; 15 mg/kg) of the same compound?
A: The Vd was 2.82 L/kg.

Q: And the half-life (in vivo [1]; 15 mg/kg)?
A: Its half-life is 2.7 ± 0.6 h.

Q: What about the kel (in vivo [1]; 15 mg/kg) of the same compound?
A: The kel was 0.27 ± 0.07 h⁻¹.

Q: And the AUC(0-inf) (in vivo [1]; 50 mg/kg)?
A: Its AUC(0-inf) is 169 ± 31.8 µg·h/mL.

Q: And the AUC(0-t) (in vivo [1]; 50 mg/kg)?
A: Its AUC(0-t) is 163 ± 29 µg·h/mL.

Q: What about the CL/F (in vivo [1]; 50 mg/kg) of the same compound?
A: Its CL/F is 10.1 mL/min/kg.

Q: And the Cmax (in vivo [1]; 50 mg/kg)?
A: Its Cmax is 45300 ± 7100 ng/mL.

Q: And the MRT (in vivo [1]; 50 mg/kg)?
A: The MRT was 3.6 ± 0.6 h.

Q: What about the Tmax (in vivo [1]; 50 mg/kg) of the same compound?
A: The Tmax was 1.5 ± 0.5 h.

Q: What about the Vd (in vivo [1]; 50 mg/kg) of the same compound?
A: Its Vd is 2.13 L/kg.

Q: What about the half-life (in vivo [1]; 50 mg/kg) of the same compound?
A: Its half-life is 2.4 ± 0.2 h.

Q: What about the kel (in vivo [1]; 50 mg/kg) of the same compound?
A: The kel was 0.29 ± 0.02 h⁻¹.

Q: What about the AUC(0-inf) (in vivo [1]; 150 mg/kg) of the same compound?
A: The AUC(0-inf) was 552 ± 154 µg·h/mL.

Q: What about the AUC(0-t) (in vivo [1]; 150 mg/kg) of the same compound?
A: Its AUC(0-t) is 537 ± 154 µg·h/mL.

Q: What about the CL/F (in vivo [1]; 150 mg/kg) of the same compound?
A: Its CL/F is 9.55 mL/min/kg.

Q: What about the Cmax (in vivo [1]; 150 mg/kg) of the same compound?
A: The Cmax was 131000 ± 54800 ng/mL.

Q: And the MRT (in vivo [1]; 150 mg/kg)?
A: Its MRT is 3.9 ± 0.7 h.

Q: What about the Tmax (in vivo [1]; 150 mg/kg) of the same compound?
A: Its Tmax is 2.2 ± 1.5 h.

Q: And the Vd (in vivo [1]; 150 mg/kg)?
A: Its Vd is 2.24 L/kg.

Q: What about the half-life (in vivo [1]; 150 mg/kg) of the same compound?
A: The half-life was 2.1 ± 0.2 h.

Q: What about the kel (in vivo [1]; 150 mg/kg) of the same compound?
A: The kel was 0.33 ± 0.03 h⁻¹.

Q: What about the AUC(0-inf) (in vivo [2]; 15 mg/kg) of the same compound?
A: The AUC(0-inf) was 23.8 ± 4.5 µg·h/mL.

Q: And the AUC(0-t) (in vivo [2]; 15 mg/kg)?
A: Its AUC(0-t) is 22.6 ± 4.5 µg·h/mL.

Q: What about the CL/F (in vivo [2]; 15 mg/kg) of the same compound?
A: Its CL/F is 3.04 mL/min/kg.

Q: And the Cmax (in vivo [2]; 15 mg/kg)?
A: The Cmax was 10000 ± 2500 ng/mL.

Q: And the MRT (in vivo [2]; 15 mg/kg)?
A: Its MRT is 3.5 ± 0.8 h.

Q: What about the Tmax (in vivo [2]; 15 mg/kg) of the same compound?
A: The Tmax was 1.7 ± 0.5 h.

Q: What about the VdSS (in vivo [2]; 15 mg/kg) of the same compound?
A: Its VdSS is 0.6325 ± 0.2371 L/kg.

Q: And the half-life (in vivo [2]; 15 mg/kg)?
A: The half-life was 2 ± 0.8 h.

Q: What about the kel (in vivo [2]; 15 mg/kg) of the same compound?
A: Its kel is 0.4 ± 0.2 h⁻¹.

Q: And the AUC(0-inf) (in vivo [2]; 50 mg/kg)?
A: Its AUC(0-inf) is 116 ± 22.8 µg·h/mL.

Q: What about the AUC(0-t) (in vivo [2]; 50 mg/kg) of the same compound?
A: The AUC(0-t) was 114 ± 22.9 µg·h/mL.

Q: What about the CL/F (in vivo [2]; 50 mg/kg) of the same compound?
A: Its CL/F is 2.07 mL/min/kg.

Q: What about the Cmax (in vivo [2]; 50 mg/kg) of the same compound?
A: The Cmax was 47400 ± 12700 ng/mL.

Q: And the MRT (in vivo [2]; 50 mg/kg)?
A: Its MRT is 2.9 ± 0.3 h.

Q: What about the Tmax (in vivo [2]; 50 mg/kg) of the same compound?
A: The Tmax was 1.2 ± 0.4 h.

Q: And the VdSS (in vivo [2]; 50 mg/kg)?
A: Its VdSS is 0.3659 ± 0.1219 L/kg.

Q: And the half-life (in vivo [2]; 50 mg/kg)?
A: Its half-life is 2.1 ± 0.3 h.

Q: What about the kel (in vivo [2]; 50 mg/kg) of the same compound?
A: Its kel is 0.3 ± 0.04 h⁻¹.

Q: And the AUC(0-inf) (in vivo [2]; 150 mg/kg)?
A: Its AUC(0-inf) is 455 ± 121 µg·h/mL.

Q: What about the AUC(0-t) (in vivo [2]; 150 mg/kg) of the same compound?
A: Its AUC(0-t) is 450 ± 118 µg·h/mL.

Q: What about the CL/F (in vivo [2]; 150 mg/kg) of the same compound?
A: Its CL/F is 1.56 mL/min/kg.

Q: What about the Cmax (in vivo [2]; 150 mg/kg) of the same compound?
A: The Cmax was 124000 ± 22700 ng/mL.

Q: What about the MRT (in vivo [2]; 150 mg/kg) of the same compound?
A: The MRT was 3.3 ± 0.3 h.

Q: What about the Tmax (in vivo [2]; 150 mg/kg) of the same compound?
A: Its Tmax is 2.2 ± 0.4 h.

Q: What about the VdSS (in vivo [2]; 150 mg/kg) of the same compound?
A: The VdSS was 0.3074 ± 0.0744 L/kg.

Q: What about the half-life (in vivo [2]; 150 mg/kg) of the same compound?
A: Its half-life is 1.7 ± 0.2 h.

Q: And the kel (in vivo [2]; 150 mg/kg)?
A: The kel was 0.4 ± 0.05 h⁻¹.

Q: And the Tmax ([3]; beagle, dog, plasma, 20 mg/kg, dogs, single oral dose 20 mg/kg)?
A: The Tmax was 1.5 ± 0.6 h.

Q: What about the Tmax ([3]; beagle, dog, plasma, 80 mg/kg, dogs, single oral dose 80 mg/kg) of the same compound?
A: The Tmax was 2 ± 1.2 h.

Q: And the Tmax ([3]; beagle, dog, plasma, 240 mg/kg, beagle dogs, following an oral dose (20, 80 and 240 mg/kg))?
A: The Tmax was 1.5 to 2 h.

Q: What about the Tmax ([3]; beagle, dog, plasma, 240 mg/kg, dogs, single oral dose 240 mg/kg) of the same compound?
A: Its Tmax is 2 ± 1.4 h.

Q: And the bioavailability ([3]; beagle, dog, plasma, dogs, 80 mg/kg dose level, oral vs i.v.)?
A: The bioavailability was > 90%.

Q: And the AUC(0-inf) [3, 4]?
A: Its AUC(0-inf) is 173 ± 9 µg·h/mL.

Q: And the AUC(0-t) [3, 4]?
A: The AUC(0-t) was 167 ± 7 µg·h/mL.

Q: What about the MRT [3, 4] of the same compound?
A: The MRT was 4.6 ± 1.2 h.

Q: And the Vd [3, 4]?
A: Its Vd is 2.1 L/kg.

Q: And the half-life ([3]; beagle, dog, plasma, dogs, single intravenous dose 80 mg/kg, read-out: t1/2 (converted))?
A: The half-life was 3.3 ± 0.3 h.

Q: What about the AUC(0-inf) [3, 5] of the same compound?
A: The AUC(0-inf) was 248 ± 25 µg·h/mL.

Q: And the AUC(0-t) [3, 5]?
A: The AUC(0-t) was 244 ± 24 µg·h/mL.

Q: What about the MRT [3, 5] of the same compound?
A: The MRT was 3.3 ± 0.5 h.

Q: And the Vd [3, 5]?
A: Its Vd is 3.22 L/kg.

Q: What about the half-life ([3]; beagle, dog, plasma, dogs, single intravenous dose 240 mg/kg, read-out: t1/2 (converted)) of the same compound?
A: The half-life was 2.3 ± 0.2 h.

Q: And the AUC(0-inf) [3, 6]?
A: Its AUC(0-inf) is 51.7 ± 15.7 µg·h/mL.

Q: What about the AUC(0-t) [3, 6] of the same compound?
A: The AUC(0-t) was 42.1 ± 8.4 µg·h/mL.

Q: What about the CL/F [3, 6] of the same compound?
A: The CL/F was 6.97 mL/min/kg.

Q: And the Cmax [3, 6]?
A: Its Cmax is 5900 ± 3100 ng/mL.

Q: And the MRT [3, 6]?
A: The MRT was 10.1 ± 5.9 h.

Q: What about the half-life ([3]; beagle, dog, plasma, dogs, single oral dose 20 mg/kg, read-out: t1/2 (converted)) of the same compound?
A: The half-life was 5 ± 3.9 h.

Q: What about the AUC(0-inf) [3, 7] of the same compound?
A: The AUC(0-inf) was 246 ± 53 µg·h/mL.

Q: What about the AUC(0-t) [3, 7] of the same compound?
A: The AUC(0-t) was 243 ± 54 µg·h/mL.

Q: And the CL/F [3, 7]?
A: The CL/F was 5.63 mL/min/kg.

Q: And the Cmax [3, 7]?
A: Its Cmax is 69000 ± 23500 ng/mL.

Q: And the MRT [3, 7]?
A: The MRT was 4.1 ± 0.8 h.

Q: And the half-life ([3]; beagle, dog, plasma, dogs, single oral dose 80 mg/kg, read-out: t1/2 (converted))?
A: Its half-life is 2 ± 0.3 h.

Q: And the AUC(0-inf) [3, 8]?
A: Its AUC(0-inf) is 489 ± 99 µg·h/mL.

Q: And the AUC(0-t) [3, 8]?
A: Its AUC(0-t) is 477 ± 94 µg·h/mL.

Q: And the CL/F [3, 8]?
A: The CL/F was 8.45 mL/min/kg.

Q: What about the Cmax [3, 8] of the same compound?
A: The Cmax was 89500 ± 27800 ng/mL.

Q: And the MRT [3, 8]?
A: Its MRT is 5.2 ± 0.2 h.

Q: What about the half-life ([3]; beagle, dog, plasma, dogs, single oral dose 240 mg/kg, read-out: t1/2 (converted)) of the same compound?
A: Its half-life is 2 ± 0.4 h.

Q: What about the half-life ([3]; dog, plasma, other: oral and intravenous (range over both routes), beagle dogs, 20, 80 and 240 mg/kg p.o., 80 and 240 mg/kg i.v., read-out: t½) of the same compound?
A: The half-life was 2 to 5 h.

Q: And the Cp0 ([3]; dogs, single intravenous dose 80 mg/kg)?
A: The Cp0 was 87.2 ± 13.2 µg/mL.

— patent US20100113613A1, “CYCLOHEXANE POLYALCOHOL FORMULATION FOR TREATMENT OF DISORDERS OF PROTEIN AGGREGATION” (WARATAH PHARMACEUTICALS, priority 2006, published 2010)
